Data from BindingDB's records for doi:10.1016/s0960-894x(02)00954-x (A.P.S. University, 2003).

Molecular target: Carbonic anhydrase 2 (Homo sapiens, UniProt P00918)
Assay: Inhibition of human carbonic anhydrase II (CAII)

- Ki: 400 nM
Structure (SMILES): NS(=O)(=O)c1cccc(N2C(=O)c3cccnc3C2=O)c1
